system: Japanese bulrush; assay: Test Example 1: herbicidal activity, application before weed generation under submerged conditions (Table 16, symbol B); type: in vivo, Japanese bulrush (Schoenoplectus juncoides); conditions: 320 g/ha applied herbicide
Procedure, shortened: (§1)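 Emulsion formulation, water-diluted to set dose, was put onto the flooded surface (4 cm depth, alluvial soil) the same day weeds were sown and 2.5-leaf rice transplanted. After 3 weeks at 25-30 °C under glass, each species was rated 0 (≤5% kill) to 5 (≥90% kill).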

Row | Structure (SMILES) | Herbicidal effect on B: Japanese bulrush (grade 0-5)
1 | Cc1nn(C)c(=O)c(-c2c(-c3cnc4ccccc4c3)sc3ccccc23)c1O [1-108] | 2 (Herbicidal rate of 20% or more and less than 40%)
2 | CCCC(=O)Oc1c(C)nn(C)c(=O)c1-c1c(-c2ccc(C(C)C)cc2)sc2ccccc12 [1-126] | 3 (Herbicidal rate of 40% or more and less than 70%)
3 | COCc1ccc(-c2sc3ccccc3c2-c2c(O)c(C)nn(C)c2=O)cc1 [1-131] | 1 (Herbicidal rate of 5% or more and less than 20%)

system: oval-leafed pondweed; assay: Test Example 1: herbicidal activity, application before weed generation under submerged conditions (Table 16, symbol C); type: in vivo, oval-leafed pondweed (Monochoria vaginalis); conditions: 320 g/ha applied herbicide
Procedure, shortened: as §1

Row | Structure (SMILES) | Herbicidal effect on C: oval-leafed pondweed (grade 0-5)
4 | Cc1nn(C)c(=O)c(-c2c(-c3cnc4ccccc4c3)sc3ccccc23)c1O [1-108] | 0 (Herbicidal rate of 5% or less (almost no effect))
5 | CCCC(=O)Oc1c(C)nn(C)c(=O)c1-c1c(-c2ccc(C(C)C)cc2)sc2ccccc12 [1-126] | 3 (Herbicidal rate of 40% or more and less than 70%)
6 | COCc1ccc(-c2sc3ccccc3c2-c2c(O)c(C)nn(C)c2=O)cc1 [1-131] | 0 (Herbicidal rate of 5% or less (almost no effect))

system: Japanese bulrush; assay: Test Example 2: herbicidal activity, application during weed generation under submerged conditions (Table 17, symbol B); type: in vivo, Japanese bulrush (Schoenoplectus juncoides); conditions: AAH 320 g/ha; application during weed generation, submerged conditions
Procedure, shortened: (§2)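 Wagner pot, alluvial soil, 4 cm flood; mixed sowing of all species; greenhouse 25° C.–30° C. Emulsifiable formulation, water-diluted to predetermined dose, applied to paddy water at 1–2 leaf stage. Effect rated at 3 wk using the earlier test's scoring criteria.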

Row | Structure (SMILES) | herbicidal effect rating, B: Japanese bulrush
7 | Cc1nn(C)c(=O)c(-c2c(-c3cnc4ccccc4c3)sc3ccccc23)c1O [1-108] | 2 (Herbicidal rate of 20% or more and less than 40%)
8 | CCCC(=O)Oc1c(C)nn(C)c(=O)c1-c1c(-c2ccc(C(C)C)cc2)sc2ccccc12 [1-126] | 3 (Herbicidal rate of 40% or more and less than 70%)
9 | COCc1ccc(-c2sc3ccccc3c2-c2c(O)c(C)nn(C)c2=O)cc1 [1-131] | 1 (Herbicidal rate of 5% or more and less than 20%)

system: oval-leafed pondweed; assay: Test Example 2: herbicidal activity, application during weed generation under submerged conditions (Table 17, symbol C); type: in vivo, oval-leafed pondweed (Monochoria vaginalis); conditions: AAH 320 g/ha; application during weed generation, submerged conditions
Procedure, shortened: as §2

Row | Structure (SMILES) | herbicidal effect rating, C: oval-leafed pondweed
10 | Cc1nn(C)c(=O)c(-c2c(-c3cnc4ccccc4c3)sc3ccccc23)c1O [1-108] | 0 (Herbicidal rate of 5% or less (almost no effect))
11 | CCCC(=O)Oc1c(C)nn(C)c(=O)c1-c1c(-c2ccc(C(C)C)cc2)sc2ccccc12 [1-126] | 1 (Herbicidal rate of 5% or more and less than 20%)
12 | COCc1ccc(-c2sc3ccccc3c2-c2c(O)c(C)nn(C)c2=O)cc1 [1-131] | 3 (Herbicidal rate of 40% or more and less than 70%)

system: green foxtail; assay: Test Example 4: herbicidal effect by soil treatment (Table 19, symbol G); type: in vivo, green foxtail (Setaria viridis); conditions: AAH 320 g/ha
Procedure, shortened: (§3)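 Emulsion of test compound, water-diluted to predetermined amount, sprayed on soil after sowing (seed depth ~1.5 cm, sterilized diluvial soil). Greenhouse, 25–30° C. Effect graded at three weeks post-spray.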

Row | Structure (SMILES) | G: green foxtail, herbicidal effect rating
13 | CCCC(=O)Oc1c(C)nn(C)c(=O)c1-c1c(-c2ccc(C(C)C)cc2)sc2ccccc12 [1-126] | 0 (Herbicidal rate of 5% or less (almost no effect))
14 | COCc1ccc(-c2sc3ccccc3c2-c2c(O)c(C)nn(C)c2=O)cc1 [1-131] | 5 (Herbicidal rate of 90% or more (almost completely withered))

same assay, conditions: amount of applied herbicide 320 g/ha

Row | Structure (SMILES) | herbicidal effect rating, G: green foxtail
15 | Cc1nn(C)c(=O)c(-c2c(-c3cnc4ccccc4c3)sc3ccccc23)c1O [1-108] | 0 (Herbicidal rate of 5% or less (almost no effect))

system: barnyard grass; assay: Test Example 4: herbicidal effect by soil treatment (Table 19, symbol H); type: in vivo, barnyard grass (Echinochloa crus-galli); conditions: AAH 320 g/ha
Procedure, shortened: as §3

Row | Structure (SMILES) | H: barnyard grass, herbicidal effect rating
16 | CCCC(=O)Oc1c(C)nn(C)c(=O)c1-c1c(-c2ccc(C(C)C)cc2)sc2ccccc12 [1-126] | 0 (Herbicidal rate of 5% or less (almost no effect))
17 | COCc1ccc(-c2sc3ccccc3c2-c2c(O)c(C)nn(C)c2=O)cc1 [1-131] | 5 (Herbicidal rate of 90% or more (almost completely withered))

same assay, conditions: amount of applied herbicide 320 g/ha

Row | Structure (SMILES) | herbicidal effect rating, H: barnyard grass
18 | Cc1nn(C)c(=O)c(-c2c(-c3cnc4ccccc4c3)sc3ccccc23)c1O [1-108] | 0 (Herbicidal rate of 5% or less (almost no effect))

system: wild oat; assay: Test Example 4: herbicidal effect by soil treatment (Table 19, symbol I); type: in vivo, wild oat (Avena fatua); conditions: AAH 320 g/ha
Procedure, shortened: as §3

Row | Structure (SMILES) | I: wild oat, herbicidal effect rating
19 | CCCC(=O)Oc1c(C)nn(C)c(=O)c1-c1c(-c2ccc(C(C)C)cc2)sc2ccccc12 [1-126] | 0 (Herbicidal rate of 5% or less (almost no effect))
20 | COCc1ccc(-c2sc3ccccc3c2-c2c(O)c(C)nn(C)c2=O)cc1 [1-131] | 2 (Herbicidal rate of 20% or more and less than 40%)

same assay, conditions: amount of applied herbicide 320 g/ha

Row | Structure (SMILES) | herbicidal effect rating, I: wild oat
21 | Cc1nn(C)c(=O)c(-c2c(-c3cnc4ccccc4c3)sc3ccccc23)c1O [1-108] | 0 (Herbicidal rate of 5% or less (almost no effect))

system: redroot pigweed; assay: Test Example 4: herbicidal effect by soil treatment (Table 19, symbol N); type: in vivo, redroot pigweed (Amaranthus retroflexus); conditions: AAH 320 g/ha
Procedure, shortened: as §3

Row | Structure (SMILES) | N: redroot pigweed, herbicidal effect rating
22 | CCCC(=O)Oc1c(C)nn(C)c(=O)c1-c1c(-c2ccc(C(C)C)cc2)sc2ccccc12 [1-126] | 3 (Herbicidal rate of 40% or more and less than 70%)
23 | COCc1ccc(-c2sc3ccccc3c2-c2c(O)c(C)nn(C)c2=O)cc1 [1-131] | 5 (Herbicidal rate of 90% or more (almost completely withered))

same assay, conditions: amount of applied herbicide 320 g/ha

Row | Structure (SMILES) | herbicidal effect rating, N: redroot pigweed
24 | Cc1nn(C)c(=O)c(-c2c(-c3cnc4ccccc4c3)sc3ccccc23)c1O [1-108] | 0 (Herbicidal rate of 5% or less (almost no effect))

system: chickweed; assay: Test Example 4: herbicidal effect by soil treatment (Table 19, symbol P); type: in vivo, common chickweed (Stellaria media); conditions: AAH 320 g/ha
Procedure, shortened: as §3

Row | Structure (SMILES) | P: chickweed, herbicidal effect rating
25 | CCCC(=O)Oc1c(C)nn(C)c(=O)c1-c1c(-c2ccc(C(C)C)cc2)sc2ccccc12 [1-126] | 2 (Herbicidal rate of 20% or more and less than 40%)
26 | COCc1ccc(-c2sc3ccccc3c2-c2c(O)c(C)nn(C)c2=O)cc1 [1-131] | 5 (Herbicidal rate of 90% or more (almost completely withered))

same assay, conditions: amount of applied herbicide 320 g/ha

Row | Structure (SMILES) | herbicidal effect rating, P: chickweed
27 | Cc1nn(C)c(=O)c(-c2c(-c3cnc4ccccc4c3)sc3ccccc23)c1O [1-108] | 0 (Herbicidal rate of 5% or less (almost no effect))

system: southern crabgrass; assay: Test Example 5: herbicidal effect by foliage application, plastic box (Table 20, symbol F); type: in vivo, southern crabgrass (Digitaria ciliaris); conditions: foliage application, AAH 320 g/ha, three weeks after application
Procedure, shortened: (§4)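 Post-emergence foliar test in sterilized diluvial soil. Compound applied as water-diluted emulsion at a predetermined rate to 14-day-old plants; evaluation at three weeks.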

Row | Structure (SMILES) | F: southern crabgrass, herbicidal effect
28 | Cc1nn(C)c(=O)c(-c2c(-c3cnc4ccccc4c3)sc3ccccc23)c1O [1-108] | 0 (Herbicidal rate of 5% or less (almost no effect))
29 | CCCC(=O)Oc1c(C)nn(C)c(=O)c1-c1c(-c2ccc(C(C)C)cc2)sc2ccccc12 [1-126] | 1 (Herbicidal rate of 5% or more and less than 20%)
30 | COCc1ccc(-c2sc3ccccc3c2-c2c(O)c(C)nn(C)c2=O)cc1 [1-131] | 5 (Herbicidal rate of 90% or more (almost completely withered))

system: green foxtail; assay: Test Example 5: herbicidal effect by foliage application, plastic box (Table 20, symbol G); type: in vivo, green foxtail (Setaria viridis); conditions: foliage application, AAH 320 g/ha, three weeks after application
Procedure, shortened: as §4

Row | Structure (SMILES) | G: green foxtail, herbicidal effect
31 | Cc1nn(C)c(=O)c(-c2c(-c3cnc4ccccc4c3)sc3ccccc23)c1O [1-108] | 0 (Herbicidal rate of 5% or less (almost no effect))
32 | CCCC(=O)Oc1c(C)nn(C)c(=O)c1-c1c(-c2ccc(C(C)C)cc2)sc2ccccc12 [1-126] | 2 (Herbicidal rate of 20% or more and less than 40%)
33 | COCc1ccc(-c2sc3ccccc3c2-c2c(O)c(C)nn(C)c2=O)cc1 [1-131] | 5 (Herbicidal rate of 90% or more (almost completely withered))

system: barnyard grass; assay: Test Example 5: herbicidal effect by foliage application, plastic box (Table 20, symbol H); type: in vivo, barnyard grass (Echinochloa crus-galli); conditions: foliage application, AAH 320 g/ha, three weeks after application
Procedure, shortened: as §4

Row | Structure (SMILES) | H: barnyard grass, herbicidal effect
34 | Cc1nn(C)c(=O)c(-c2c(-c3cnc4ccccc4c3)sc3ccccc23)c1O [1-108] | 0 (Herbicidal rate of 5% or less (almost no effect))
35 | CCCC(=O)Oc1c(C)nn(C)c(=O)c1-c1c(-c2ccc(C(C)C)cc2)sc2ccccc12 [1-126] | 4 (Herbicidal rate of 70% or more and less than 90%)
36 | COCc1ccc(-c2sc3ccccc3c2-c2c(O)c(C)nn(C)c2=O)cc1 [1-131] | 5 (Herbicidal rate of 90% or more (almost completely withered))

system: wild oat; assay: Test Example 5: herbicidal effect by foliage application, plastic box (Table 20, symbol I); type: in vivo, wild oat (Avena fatua); conditions: foliage application, AAH 320 g/ha, three weeks after application
Procedure, shortened: as §4

Row | Structure (SMILES) | I: wild oat, herbicidal effect
37 | Cc1nn(C)c(=O)c(-c2c(-c3cnc4ccccc4c3)sc3ccccc23)c1O [1-108] | 0 (Herbicidal rate of 5% or less (almost no effect))
38 | CCCC(=O)Oc1c(C)nn(C)c(=O)c1-c1c(-c2ccc(C(C)C)cc2)sc2ccccc12 [1-126] | 2 (Herbicidal rate of 20% or more and less than 40%)
39 | COCc1ccc(-c2sc3ccccc3c2-c2c(O)c(C)nn(C)c2=O)cc1 [1-131] | 4 (Herbicidal rate of 70% or more and less than 90%)

system: windgrass; assay: Test Example 5: herbicidal effect by foliage application, plastic box (Table 20, symbol L); type: in vivo, windgrass (Apera spica-venti); conditions: foliage application, AAH 320 g/ha, three weeks after application
Procedure, shortened: as §4

Row | Structure (SMILES) | L: windgrass, herbicidal effect
40 | Cc1nn(C)c(=O)c(-c2c(-c3cnc4ccccc4c3)sc3ccccc23)c1O [1-108] | 0 (Herbicidal rate of 5% or less (almost no effect))
41 | CCCC(=O)Oc1c(C)nn(C)c(=O)c1-c1c(-c2ccc(C(C)C)cc2)sc2ccccc12 [1-126] | 0 (Herbicidal rate of 5% or less (almost no effect))
42 | COCc1ccc(-c2sc3ccccc3c2-c2c(O)c(C)nn(C)c2=O)cc1 [1-131] | 4 (Herbicidal rate of 70% or more and less than 90%)

system: chickweed; assay: Test Example 5: herbicidal effect by foliage application, plastic box (Table 20, symbol P); type: in vivo, common chickweed (Stellaria media); conditions: foliage application, AAH 320 g/ha, three weeks after application
Procedure, shortened: as §4

Row | Structure (SMILES) | P: chickweed, herbicidal effect
43 | Cc1nn(C)c(=O)c(-c2c(-c3cnc4ccccc4c3)sc3ccccc23)c1O [1-108] | 2 (Herbicidal rate of 20% or more and less than 40%)
44 | CCCC(=O)Oc1c(C)nn(C)c(=O)c1-c1c(-c2ccc(C(C)C)cc2)sc2ccccc12 [1-126] | 5 (Herbicidal rate of 90% or more (almost completely withered))
45 | COCc1ccc(-c2sc3ccccc3c2-c2c(O)c(C)nn(C)c2=O)cc1 [1-131] | 5 (Herbicidal rate of 90% or more (almost completely withered))

system: persian speedwell; assay: Test Example 5: herbicidal effect by foliage application, plastic box (Table 20, symbol R); type: in vivo, Persian speedwell (Veronica persica); conditions: foliage application, AAH 320 g/ha, three weeks after application
Procedure, shortened: as §4

Row | Structure (SMILES) | R: persian speedwell, herbicidal effect
46 | Cc1nn(C)c(=O)c(-c2c(-c3cnc4ccccc4c3)sc3ccccc23)c1O [1-108] | 0 (Herbicidal rate of 5% or less (almost no effect))
47 | CCCC(=O)Oc1c(C)nn(C)c(=O)c1-c1c(-c2ccc(C(C)C)cc2)sc2ccccc12 [1-126] | 4 (Herbicidal rate of 70% or more and less than 90%)
48 | COCc1ccc(-c2sc3ccccc3c2-c2c(O)c(C)nn(C)c2=O)cc1 [1-131] | 5 (Herbicidal rate of 90% or more (almost completely withered))
